Experimental data taken from ChEMBL document CHEMBL4837238, “Feature-Based Molecular Networking for the Targeted Identification of Gq-Inhibiting FR900359 Derivatives” (J Nat Prod, 2021).
Starred links: 1 amine or outer side, 2 acyl side, 3 side chain; linkers in the order of their positions; H or OH if unused. Positions of bridges follow the written chain, without caps; N, C: chain ends. Non-standard residues stand in square brackets, D forms with d. Residues, ends and D or L forms follow the SMILES beside them. *: point of attachment. Leu(3R-OH,Nα-propionyl) = CCC(=O)N[C@H](C(=O)*)[C@H](O)C(C)C; X1 = CC(C)[C@@H](O[*:3])[C@H](N[*:1])C(=O)[*:2]; NMeT = CN[C@H](C(=O)O)[C@@H](C)O; dPhLac = O=C(O)[C@H](O)Cc1ccccc1; NMeA = CN[C@@H](C)C(=O)O; NMeDha = C=C(NC)C(=O)O

Assays:
[1] = Displacement of [3H]-PSB15900 from human platelet membrane Gq incubated for 90 mins by scintillation counter method; assay type: cell membranes
[2] = molecular target: T1, Guanine nucleotide-binding protein G(q) subunit alpha (Homo sapiens, UniProt P50148); assay: Inhibition of wild type GNAQ (unknown origin) expressed in CRISPR/Cas9 engineered HEK293 cells; assay type: cell-based
T1 sequence (P50148 whole entry): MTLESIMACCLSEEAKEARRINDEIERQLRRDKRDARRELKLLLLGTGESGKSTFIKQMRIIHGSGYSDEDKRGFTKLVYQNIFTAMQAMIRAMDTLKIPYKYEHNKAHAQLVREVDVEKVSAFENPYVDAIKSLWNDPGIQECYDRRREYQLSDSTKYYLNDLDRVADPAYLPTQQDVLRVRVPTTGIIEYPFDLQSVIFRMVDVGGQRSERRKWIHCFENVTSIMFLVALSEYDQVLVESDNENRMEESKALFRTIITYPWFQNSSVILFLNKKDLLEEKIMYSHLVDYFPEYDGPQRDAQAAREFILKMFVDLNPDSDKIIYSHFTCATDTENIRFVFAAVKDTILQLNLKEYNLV

IC50 [2]	Structure (SMILES)	pKi [1]
–	C=C1C(=O)N[C@@H](C)C(=O)N(C)[C@@H](C)C(=O)N[C@@H]([C@H](OC(=O)[C@@H](NC(=O)CC)[C@H](O)C(C)C)C(C)C)C(=O)N(C)[C@@H]([C@@H](C)OC)C(=O)O[C@H](C(C)C)[C@H](NC(C)=O)C(=O)O[C@H](Cc2ccccc2)C(=O)N1C (Ac-[X1][dPhLac][NMeDha]A[NMeA][X1](Leu(3R-OH,Nα-propionyl))[NMeT](Me); ester 1-C)	8.66
2750 nM	C=C1C(=O)N[C@@H](C)C(=O)N(C)[C@@H](C)C(=O)N[C@@H]([C@H](OC(=O)[C@@H](NC(C)=O)C(O)C(C)C)C(C)C)C(=O)N(C)/C(=C\C)C(=O)O[C@H](C(C)C)[C@H](NC(C)=O)C(=O)O[C@H](Cc2ccccc2)C(=O)N1C (single isomer, unassigned)	7.5
